The subject of one data set is K. aerogenes ATCC 29940. Kind of data set: MIL-based whole-cell extraction. As to conditions: EF determined using Tryptic Soy Agar. On the set-up: species or system Klebsiella aerogenes. The protocol: (§1) A universal schematic for MIL-based cell extraction is depicted in FIG. 7B. A 1 mL volume of diluted cell suspension was added to a flat-bottomed 4-mL screw cap glass vial. Fifteen microliters of either the Ni(II) or Dy(III) MIL was added and dispersed into microdroplets by vortex agitation for 30 s. The aqueous phase was decanted following dispersive extraction, and the MIL was subjected to a brief wash step using 1 mL of nuclease-free water (Integrated DNA Technologies, Coralville, IA, USA) to ensure adequate removal of loosely or incidentally bound cells. […]
(§2) Following back-extraction, aliquots of the cell-enriched back-extraction medium were serially diluted in 0.1% peptone water and a 10 μL aliquot of each dilution was applied to a separate lane on square plates containing an appropriate agar medium. […] Colonies were counted and colony forming units (CFU) were determined. The enrichment factor (EF) for MIL-based extraction was calculated using Equation 1, where CMIL represents the concentration of bacteria in suspension following extraction using the MIL and CS is the initial concentration of bacteria in the sample.

For data set [1], the system named is P. carotovorum pv. carotovorum. Kind of data set: MIL-based whole-cell extraction. The following applies: EF determined using Columbia Agar. On the set-up: species or system Pectobacterium carotovorum. The method, then: as §1, §2
The next data set concerns E. coli O157:H7. It is filed as cell-based, Escherichia coli. The following applies: no significant differences (p-value=0.4491). The method, then: (§3) The following statistical analysis was performed in SAS 9.4. Four master suspensions of bacteria were prepared for four Salmonella enterica serovars: subsp. typhimurium, subsp. arizonae, subsp. diarizonae and subsp. houtenae. Two master suspensions were made for the remaining three Salmonella serovars or species: S. enterica subsp. indica, subsp. salamae and S. bongori. For E. coli O157:H7, two master suspensions of bacteria were prepared for each of the eight strains studied. For all bacteria tested, two replicate extractions from the same master suspension were performed, using the 10-3 dilution. Following MIL-based capture, back-extraction solutions were plated to non-selective agar (TSA) and selective agar (BSA) for Salmonella and SMAC for E. coli. To identify whether significant differences existed for the capture of Salmonella and E. coli O157:H7, we applied a linear mixed model for the response variable (enrichment factor) with log transformation in order to reduce skewness. […]
(§4) In order to explore the broader utility of our approach, evaluation of additional cell types is needed. […] We later determined that VRBGA was a suitable common medium for this purpose and used this in our statistical analysis. […] Enrichment factors were calculated for Salmonella on both non-selective (TSA) and selective agars (BSA) and for E. coli O157:H7 on non-selective agar (TSA). […]

The next data set relates to Salmonella serovars. It is filed as cell-based. The protocol:
as §3, §4

Consider `CCCCCCCCCCCCCC[P+](CCCCCC)(CCCCCC)CCCCCC.O=C([CH-]C(=O)C(F)(F)F)C(F)(F)F.O=C([CH-]C(=O)C(F)(F)F)C(F)(F)F.O=C([CH-]C(=O)C(F)(F)F)C(F)(F)F.[Ni+2]` [Ni(II) MIL, [P66614^+][Ni(hfacac)3^−]], for which the results for the “Enrichment Factor” value (with K. aerogenes ATCC 29940; in data set [1]) were 71 and 24, respectively. In the data set on E. coli O157:H7, the “MIL-conferred injury: recovery on TSA vs VRBGA” value was “no injury could be detected”. Moreover, the “MIL-conferred injury: recovery on TSA or BSA” value in the data set on Salmonella serovars (no statistically significant differences (p-value=0.7248)) is given as “no detectable injury”. Moreover, the “recovery on VRBGA compared with TSA” value with Salmonella serovars (p-value=0.0004) is “significantly lower”.
